In patent publication US20250144128A1, “CANCER TREATMENT” (Nucana plc, priority 2022, published 2025):

How the values were obtained:
[1] = tested on: adenosine deaminase (ADA); conditions: inactive metabolite 3′-deoxyinosine; Tsai et al. 2010; cited from earlier work
[2] = tested on: A375 melanoma or A549 lung cancer cell lines; test: mRNA decrease in the cell line studies (RT-qPCR), cell line not specified; type: cell-based; conditions: NUC-7738 10 uM vs DMSO
Procedure: (§1) A375 melanoma cell lines and A549 lung cancer cell lines were treated with solvent-control DMSO or NUC-7738 (10 uM) for 72 hours, after which media supernatants were collected for either soluble PD-L1 analysis or EV isolation. In addition, adherent cells were collected for RNA and protein isolation.
To determine RNA expression of soluble transcript, cells were lysed and RNA isolated using the RNAeasy Kit (Qiagen, Cat #74136). This was then followed by RNA reverse transcription into cDNA using QuantiNova Reverse Transcription Kit (Qiagen, Cat #205413). Primers for each gene were designed using PrimerQuest™ (Integrated DNA Technologies) and ordered at 100 uM concentrations from IDT. The soluble PD-L1 transcript primer was designed to create an amplicon of about 100 bp size crossing the exon 4 and intron 4 junction.
RT-qPCR was carried out using the qPCRBIO SyGreen MasterMix kit (PCRBiossystems Cat #PB20.14-50) and the Rotor qene Q qPCR machine (Qiagen). Ct values were analysed using the Rotor qene Q Software. Fold change were calculated using the AACt values.

[3] = tested on: sPD-L1, A375 melanoma or A549 lung cancer cell lines; test: sPD-L1 in media supernatant in the cell line studies (sandwich ELISA), cell line not specified; type: cell-based; conditions: NUC-7738 10 uM vs DMSO
Procedure: For sPDL1 analysis, a similar process was undertaken. Cells were grown in Corning® 100 mm TC-treated Culture Dish with DMEM, high glucose, GlutaMAX™ Supplement (ThermoFisher Cat #10566016) supplemented with 10% FBS and 1% Penicillin-Streptomycin (ThermoFisher Cat #15070063), with approximately 2×10^6 cells.
as §1
Patient plasma samples were centrifuged at 3000×g for 15 minutes to remove cellular debris. […]
For quantitative measurement of soluble PD-L1 in patient and in-vitro samples Quantikine® ELISA Human/Cynomolgus Monkey PD-L1/B7-H1 Immunoassay (R&D Systems Cat. #DB7H10) was used as per manufacturers recommendation. […]
In brief, the protocol included the preparation of the standard curve from the Human/Cynomolgus Monkey PD-L1/B7-H1 protein standard ranging from […]. […] The wells were read using a microplate reader set to 450 nm and 540 nm for wavelength correction to determine the optical density.
Analysis of the results included subtracting the 540 nm readings from 450 nm reading and subtracting blank, diluent only, sample readings. […]

[4] = tested on: ExoPD-L1, A375 melanoma or A549 lung cancer cell lines; test: ExoPD-L1 protein in exosomes from the cell line studies; type: cell-based; conditions: NUC-7738 10 uM vs DMSO
Procedure: For Extracellular Vesicle (EV, exosome) preparation, cells were cultured in T175 Nunc™ EasYFlask™ Cell Culture Flasks (ThermoFisher Cat #159910), approximately 50×10^6 cells. Cells were grown in DMEM, high glucose, GlutaMAX™ Supplement (ThermoFisher Cat #10566016) supplemented with 5% exosome free FBS and 1% Penicillin-Streptomycin (ThermoFisher Cat #15070063).
as §1
Isolation of exosomes from in-vitro samples involved growing cells in 5 separate T175 Nunc™ EasYFlask™ Cell Culture Flasks (ThermoFisher Cat #159910) which approximated to 50×10^6 cells. Cells were grown in DMEM, high glucose, GlutaMAX™ Supplement (ThermoFisher Cat #10566016) in addition, this was supplemented with exosome free FBS. […]
Analysis of PD-L1 expression in exosomes isolated from plasma samples was carried out using automated western blotting JESS system (BioTechne, ProteinSimples). […] The expression was determined by the area under the curve using Compass Software v 6.1 (ProteinSimple).

[5] = tested on: exosomal PD-L1; test: exosomal PD-L1 in plasma of patients treated with NUC-7738 (capillary-based immune probing, PD-L1/CD81); type: in vivo, human; conditions: plasma exosomes; for PD-L1/CD81 values: 24 h Post C1
Procedure: Patients were treated with NUC-7738 on days 1 and 8 of a 14-day cycle. Patient plasma samples were collected pre-dose, 24 hr after NUC-7738 dosage and the 24 hours post Cycle 2 (that is the second occasion at which patients received treatment).
Patient plasma samples were centrifuged at 3000×g for 15 minutes to remove cellular debris. Then, the supernatant was aliquoted in 250 μL measures and stored in−80° C. freezers. For exosomal isolation ExoQuick® ULTRA EV Isolation Kit for Serum and Plasma (System Biosciences Cat #EQULTRA-20A-1) according to manufacturer's protocol. In brief, 250 μL of plasma samples free of cellular debris was used and 67 μL ExoQuick Solution was added, followed by a 30 minute incubation period at 4° C. After that, the plasma sample and ExoQuick Solution mixture were centrifuged at 3000×g for 10 minutes. Then, carefully without disturbing the pellet, all of the supernatant was aspirated off, making sure no residual traces remained. Next, the pellet was resuspended in Buffer B provided, followed by the addition of Buffer A. The samples was homogenised in the buffer by carefully pipetting up and down until no clumps of the pellet were seen. The resin purification columns were conditioned by removing the storage buffer and washing it with Buffer B. The samples were added to the conditioned purification column and centrifuged at 1000×g for 30 seconds. The eluted samples were quantified for protein concentration using Qubit™ Protein and Protein Broad Range (BR) Assay Kits (Thermofisher Cat #A50668). Samples were then aliquoted according to the required amounts for the downstream applications and stored −80° C.
Analysis of PD-L1 expression in exosomes isolated from plasma samples was carried out using automated western blotting JESS system (BioTechne, ProteinSimples). The 12-230 kDa Separation Module of 25 capillaries kit (ProteinSimple, Cat #SM-W004) was used per manufacture protocol. Briefly, samples were prepared at the appropriate concentration using the kit master-mix and sample dilution buffer containing DT, samples were then denatured for 5 minutes at 95° C. All samples, primary antibodies and secondary antibodies were loaded into the plate provided. Anti-CD81 antibody [M38] (Abcam, Cat #ab79559) diluted at 1:100 and PD-L1 (E1L3N®) XP® Rabbit mAb (Cell Signalling, Cat #13684) diluted at 1:50 were used. Secondary antibodies used were from the anti-mouse chemiluminescence (ProteinSimple, Cat #DM002) and anti-rabbit near-infrared (NIR) (ProteinSimple, Cat #DM007) detection module, they were used at recommended dilution. The prepared plates and capillaries were then loaded onto the JESS, and sample run at the defaults settings. The expression was determined by the area under the curve using Compass Software v 6.1 (ProteinSimple).

[6] = tested on: exosomal PD-L1; test: as above; type: in vivo, human; conditions: for PD-L1/CD81 values: plasma exosomes, Pre C2 (15 days after initial cycle)
[7] = patient 001-002, Pre C1 (untreated) 0.044
[8] = patient 001-019, Pre C1 (untreated) 0.039
[9] = patient 002-002, Pre C1 (untreated) 0.035
[10] = patient 003-008, Pre C1 (untreated) 0.045

SMILES | metabolism after administration, in vivo [1] | decrease of mRNA [2] | time dependent decrease of sPD-L1 expression in the media supernatant [3] | reduction of ExoPD-L1 protein [4] | PD-L1/CD81 values [5, 7] | time within which the reduction of the PD-L1/CD81 ratio is seen ([5]; patient 001-019) | PD-L1/CD81 values [5, 8] | PD-L1/CD81 values [5, 9] | PD-L1/CD81 values [5, 10] | PD-L1/CD81 values [6, 7] | PD-L1/CD81 values [6, 8] | PD-L1/CD81 values [6, 9] | PD-L1/CD81 values [6, 10] | reductions in Exo-PD-L1 compared to pre-treatment levels ([6]; preliminary studies, serum from 4 patients treated with NUC-7738)
Nc1ncnc2c1ncn2[C@@H]1O[C@H](CO)C[C@H]1O [3′-dA, 3′-deoxyadenosine] | quickly deaminated by adenosine deaminase (ADA), and rapidly metabolized to an inactive metabolite |  |  |  |  |  |  |  |  |  |  |  |  | 
C[C@H](NP(=O)(OC[C@@H]1CC(O)[C@H](n2cnc3c(N)ncnc32)O1)Oc1ccccc1)C(=O)OCc1ccccc1 (stereo partly drawn) [NUC-7738, 3′-deoxyadenosine-5′-O-[phenyl(benzyloxy-L-alaninyl)] phosphate] |  | up to 40% | up to 3 fold | 50% | 0.047 | ≤ 24 h | 0.02 | 0.043 | 0.041 | 0.025 | 0.049 | 0.023 | 0.029 | ≤ 50%
